Values belong to the compound of their own block, whether it stands above or below them.
Experiments:
PVR = target: T1, PVR (Homo sapiens, UniProt P15151); test: Biolayer interferometry-based (BLI) binding assay; conditions: for Kd: read-out: KD to PVR protein (BLI)
T1 construct: purchased ACRO Biosystem CD5-H82E3
T1 sequence (P15151 21-417): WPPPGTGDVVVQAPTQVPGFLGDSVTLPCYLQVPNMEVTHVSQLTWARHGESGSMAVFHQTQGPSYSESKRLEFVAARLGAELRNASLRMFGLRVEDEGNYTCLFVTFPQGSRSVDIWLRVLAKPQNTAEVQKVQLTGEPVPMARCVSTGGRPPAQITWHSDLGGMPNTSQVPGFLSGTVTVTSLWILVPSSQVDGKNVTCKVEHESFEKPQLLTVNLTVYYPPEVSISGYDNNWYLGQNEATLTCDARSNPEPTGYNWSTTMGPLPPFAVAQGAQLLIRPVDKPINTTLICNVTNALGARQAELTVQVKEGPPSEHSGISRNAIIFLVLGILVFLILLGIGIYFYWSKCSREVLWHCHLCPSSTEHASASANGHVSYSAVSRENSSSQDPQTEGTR
Protocol: BLI experiments were performed in PBS supplemented with 0.1% (w/v) BSA, 0.002% (v/v) Tween 20 and 1% DMSO, with an Octet RED96 instrument (FortéBio), operating at 25 °C. The biotinylated PVR carrying a C-terminal AVITAG (CD5-H82E3, ACRO Biosystem) was loaded to saturation onto Super Streptavidin (SSA) biosensors (Pall/FortéBio), and blocked with 200 μL biotin (5 μg/mL) for 60 s. Before the assay, the PVR-labeled SSA sensors were pre-soaked in binding buffer for 30 min. The twenty-two small molecule compounds were preliminary screened for binding to PVR at a single concentration of 100 μM. […] The dissociation was monitored by washing the ligand biosensors from the analyte solution to binding buffer for 60 s. Double reference-subtracted sensorgrams were analyzed using Data Analysis 9.0 (Pall/Forte Bio), and binding responses at the end of the association phase were reported.

human TIGIT/PVR = target: T2, human TIGIT/PVR (Homo sapiens, UniProt P15151); test: Cell based blocking assay, CHOK1-hTIGIT cells and human PVR-Fc; conditions: CHOK1-hTIGIT cells, highest concentration
T2 construct: purchased ACRO Biosystem CD5-H82F6; host or cells: PVR-Fc was purchased; TIGIT was expressed on CHO-K1 cells by lentiviral infection (CHOK1-hTIGIT)
T2 sequence (P15151 28-343 limits assumed): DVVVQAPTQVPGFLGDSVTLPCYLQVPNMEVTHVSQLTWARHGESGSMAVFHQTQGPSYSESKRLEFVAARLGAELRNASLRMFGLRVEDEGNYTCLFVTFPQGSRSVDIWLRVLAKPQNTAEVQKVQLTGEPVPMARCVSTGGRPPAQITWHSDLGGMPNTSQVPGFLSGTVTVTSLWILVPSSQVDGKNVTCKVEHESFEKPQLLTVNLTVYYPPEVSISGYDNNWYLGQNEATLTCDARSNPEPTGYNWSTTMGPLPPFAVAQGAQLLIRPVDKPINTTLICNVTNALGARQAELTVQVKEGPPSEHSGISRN
Protocol: Cell based blocking assay was performed according to the previous report [30]. […] Then the mixture of PVR protein and compounds were incubated with CHOK1-TIGIT cells for another 30 min, followed by incubation with detection antibody anti-human IgG-PE (eBioscience) for 30 min. Cells were then washed with FACS buffer to remove the unbound fluorescent antibodies, acquired on a FACS Caliber™ (BD Biosciences) and analyzed by FlowJo. […] Cells incubated with corresponding Fc tagged protein and anti-human IgG-PE served as positive control, while cells only incubated with anti-human Fc-PE served as negative control. The mean fluorescent intensity (MFI) was recorded for calculating the blocking efficiency as the formula: Blocking%=MFIof positive control−MFIof tested compounds/MFIof positive control×100%.

[1] = Potential side effects in mice; type: in vivo; conditions: different concentrations administrated for at least one week
MC38 cells = test: Cell viability assay (MTT); type: cell-based, murine; conditions: 12.5 to 100 μM, 3 days
Protocol: The cytotoxic effects of indicated compound on MC38 cells were determined by MTT assay. MC38 cells were seeded into 96-well plates at a density of 3000 cells/well and allowed to grow for adhesion. Cells were treated with medium with 1% DMSO as negative control or with a series dilution of indicated compound at a concentration range of 12.5 to 100 μM. Cell viability was ascertained using MTT reagent (Sigma) dissolved in 5 mg/mL PBS and incubated at 37 °C for 4 h in the following 3 days. Formazan crystals formed by viable cells were dissolved in 150 μL DMSO in each well. MTT reduction was quantified by measuring the absorbance at 490 nm.

MC38 tumor = test: Anti-tumor experiment and ex vivo assays, MC38 tumor-bearing mice; type: in vivo, C57BL/6 mice
Protocol: All mice experimental procedures were approved by the Ethics Committee of Zhengzhou University. Six-week-old female C57BL/6 mice (Vital River Laboratories, China) were maintained in a specific pathogen-free facility. Food and water were supplied ad libitum. Mice were acclimatized for about 1 week before the experiment. C57BL/6 mice were subcutaneously (s.c.) injected on the right flank with 1 × 10^6 syngeneic MC38 cells in 200 μL PBS. One week later, tumor-bearing mice were randomized into groups of negative control (normal saline with 3% DMSO and 0.5% Tween-80), 0.5, 1.5, 5 and 15 mg/kg of compounds or anti-TIGIT and isotype control groups. Mice were treated with 200 μL control or indicated compound through intraperitoneal (i.p.) injection every other day for 2 weeks, or with 200 μg anti-TIGIT (clone:1G9, Bioxcell) or isotype control mouse IgG (I5381, Sigma) through i.p. injection every 3 days for 2 weeks. Tumor sizes were measured using a digital caliper, and tumor volumes were calculated as the formula: V=1/2×alength×bwidth×cheight
For indicated immune cell depletion models, MC38 mice were injected with 250 μg anti-CD4 (clone: GK1.5), 200 μg anti-CD8 (clone: YTS169.4) or matched rat IgG control (I4131, Sigma), 200 μg anti-NK1.1 (clone: PK136) or matched mouse IgG control (I5381, Sigma) the day before the start of tumor inoculation, as well as weekly thereafter, resulting in a total of 3 injections per mouse. The depletion efficacy was confirmed by flow cytometry analysis with the blood sample of mice treated with indicated antibodies for 6 days. Mouse anti-CD45 FITC (clone: 30-F11, eBioscience), anti CD3 PerCP-eFluor710 (clone: 17A2, eBioscience), anti-CD8α APC (clone: 53–6.7, eBioscience), anti-CD4 APC (clone: GK1.5, eBioscience) and anti-NK1.1 PE (clone: PK136, eBioscience) were used.
Upon completion of treatment, MC38 tumor-bearing mice were sacrificed, and the tumors were dissected and digested by 100 U/mL collagenase IV (Invitrogen) and 100 U/mL Dnase I (Sigma) for 60 min, and then filtered through a 70 μm nylon cell strainer to single cell suspension. The cells were incubated with mouse anti-CD45 FITC (clone: 30-F11, eBioscience), mouse anti-CD3 PerCP-eFluor710 (clone: 17A2, eBioscience), and mouse anti-CD8α APC (clone: 53–6.7, eBioscience) to detect the frequency of infiltrating CD8^+ T cells. For functional assay, the tumor-infiltrating lymphocytes were isolated from tumor cell suspension by discontinuous Percoll density gradients (40 and 70%) (GE Healthcare). The isolated tumor-infiltrating lymphocytes, splenocytes and draining lymph node cells prepared by gentle mechanical disruption were stimulated with or without 20 ng/mL phorbol 12-myristate 13-acetate (PMA, Sigma) and 1 μMionomycin (Sigma) in the presence of protein transport inhibitor for 4 h. The following procedure of intracellular cytokine staining assay was performed as mentioned above, and the antibodies for the staining were mouse anti-CD3 PerCP-eFluor710, mouse anti-CD8α PE, and mouse anti-IFN-γ APC (clone: XMG1.2, eBioscience).

KD to PVR protein (BLI) (PVR; series of concentrations): could not fit a determined KD value | BLI response, primary screening (PVR; single concentration of 100 μM): relatively good response
SMILES: O=C1/C(=C2\Nc3ccccc3C2=O)Nc2ccccc21 [SMC 2, Indigo]

Kd (PVR; series of concentrations): 42 µM | blocking efficacy of TIGIT/PVR (human TIGIT/PVR): 52%
SMILES: COc1cc(/C=C/C(=O)CC(=O)/C=C/c2ccc(O)c(OC)c2)ccc1O [SMC 6, Curcumin]

SMILES: N[C@@H](Cc1cc(I)c(Oc2ccc(O)c(I)c2)c(I)c1)C(=O)O [SMC 14, Liothyronine]
side effects on mental state, weight and diet of the mice [1]: no obvious effects | cell viability of MC38 cells (MTT) (MC38 cells): did not impact the cell viability | anti-tumor effects, MC38 tumor model (MC38 tumor; 0.5 mg/kg i.p. every other day): almost no anti-tumor effects | anti-tumor effects with CD4+, CD8+ T and NK cells depleted (MC38 tumor; 5 mg/kg, MC38 model, depletion antibodies): almost disappeared | anti-tumor effects, MC38 tumor model (MC38 tumor; 15 mg/kg compared with 5 mg/kg, i.p. every other day): equivalent | MC38 tumor growth (MC38 tumor; high dose 5 mg/kg i.p. every other day): significantly inhibit | MC38 tumor growth (MC38 tumor; low dose 1.5 mg/kg i.p. every other day): significantly inhibit

Kd (PVR; series of concentrations): 5.9 µM | blocking efficacy of TIGIT/PVR (human TIGIT/PVR): extremely low blocking efficacy
SMILES: O=C(O[C@@H]1Cc2c(O)cc(O)cc2O[C@@H]1c1ccc(O)c(O)c1)c1cc(O)c(O)c(O)c1 [SMC 22, Epicatechin gallate]
